Values quoted from earlier work, collected in patent US20080161413A1, “Agent for increasing adiponectin in blood” (YAMAHA HATSUDOKI KABUSHIKI KAISHA, priority 2006, published 2008).

Test system: adiponectin
Conditions: obese/diabetic mice

COc1cc(C(C)=O)ccc1O [apocynin]
production of adiponectin: increases
